In patent US20130196937A1, “AGE PRODUCTION INHIBITOR” (ORYZA OIL & FAT CHEMICAL CO., LTD., priority 2010, published 2013):
Marks after values point to notes of the source that are not given here.

Experiments:
human diploid fibroblast = assay: Test 4: AGE production within the fibroblast processed with glyoxal (Western Blotting); format: cell-based; conditions: 1 and 10 mg/mL, 5 days
Description: Test 4 examined the activity of the cherry blossom-extract (Example 1) and of the 1-O-(E)-Caffeoyl-β-D-glucopyranoside (Example 3) against the production of AGE (carbon methyl lysine protein) within the fibroblast (human diploid fibroblast) which was processed with glyoxal.
Human diploid fibroblast (passage number 30) was suspended in a D-MEM complete culture media, and 20 mL each was seeded within a cell culture dish of 14 cm in diameter. After 48 hours of culture, samples of various concentrations and of […] of glyoxal were added to 80%-confluent cells and cultured for 5 days. After that, each sample was collected and crushed. Then, protein […] was examined by the Western Blotting method using an anti-AGE antibody to detect AGE. […] In FIG. 6, CaGlu means 1-O-(E)-Caffeoyl-β-D-glucopyranoside (Example 3).

AGE production = assay: Test 1: AGE production inhibition (D-glucose + bovine serum albumin, fluorescence); format: biochemical
Description: Put the sample solution ([…]) of the concentration of cherry-blossom extract (Example 1) and cherry-leaf extract (Example 2), as shown in the chart, below, into a phosphate buffer solution (pH: […]) containing D-glucose (10%) and into bovine serum albumin (fraction 5.1%) and leave it out at a temperature of 60 degrees centigrade for two days. Dilute the reaction solution with distilled water until the intensity of fluorescent light reaches about 500, thus determining its intensity (measurement wavelength: […]). Also, the extract is to be diluted with distilled water, and the substance, after being dissolved in DMSO (dimethyl sulphoxide), is to be diluted with a phosphate buffer solution until DMSO concentration is of 1%. Each value in Chart 1 indicates an average value with standard error of the three examples. Asterisks (*, **) mean a significant difference (i.e. *: p<0.05; **: p<0.01) between the processed samples and the unprocessed samples as determined by Dunnett's Multiple Comparison Test.

[1] = test system: normal diploid fibroblast (PDL22-32 cells); assay: Test 2-2: fibroblast apoptosis caused by CML-collagen (Caspase Assay), extracts and substances; format: cell-based, human
Description: 50 mg of 1 mM HCL was added to 25 mL of bovine skin-derived collagen and dissolved for two hours incubation at the temperature of 37 degrees centigrade, and was shaken as needed. Then, PBS (pH7.4 25 mL) was added to sodium cyanoborohydride (1.42 g) and to glyoxylic acid (0.9 g) and mixed so as to react at the temperature of 37 degrees centigrade for 24 hours. The reaction solution was then put into a dialysis cell of 10,000 molecular mass for a dialysis-with-water test to be conducted for one day and for a dialysis-with-PBS to be conducted for six days. CML-collagen (21 mg) was obtained by freeze-drying the dialysate.
The fibroblast (7×10^4 cells) was suspended in the D-MEM medium containing FCS (0.5%), penicillin (100 units/mL) and streptomycin ([…]) to be seeded within 96-well plates ([…]). After 24 hours of culture, the dissolved CML-collagen solution (2 mg·mL) and the sample solution ([…]) were added to the medium and cultured for 24 hours. Collagen, instead of CML-collagen, was added to Normal group.
The rate of cell survival was measured by MIT Assay. The result is shown in Chart 2. At the same time, a microscopic test was done, of which the result of formazan formation of fibroblast (×100) is shown in FIG. 2. Apoptosis was identified by measuring active caspase-3/7 by the fluorescence method, of which the result is shown in Chart 3, below. Each value of Charts 2 and 3 is indicated by the average value with standard error of the six examples. Asterisks (*, **) mean a significant difference (i.e. *: p<0.05; **: p<0.01) between the unprocessed samples and Dunnett's multiple comparison test, and f represents p<0.05 by Fisher's PLSD Test.
Here, in Test 2-2, respecting the cherry-blossom extract (Example 1), and the cherry-leaf extract (Example 2) and the seven substances contained in the cherry-blossom extract (Example 1): 1-O-(E)-Caffeoyl-β-D-glucopyranoside, 1-O-(E)-Coumaroyl-β-D-Glucopyranosideand, 1-O-(E)-Cinnamoyl-β-D-glucopyranoside, Kaempferol 3-O-3-D-glucopyranoside, Quercetin 3-O-β-D-glucopyranoside, Kaempferol 3-O-(6″-malony)-β-D-glucopyranoside and Quercetin 3-O-(6″-malony)-β-D-glucopyranoside (Examples 3 to 9), the activity against fibroblast apoptosis, caused by CML-collagen, was identified in the same way as in Test 2-1.
Also, in Test 2-2, PDL22-32 cells were used as the normal diploid fibroblast. As a target for comparison, aminoguanidine hydrochloride which is a medicine for the glycation inhibitor was examined in the same way. Each value of Chart 4 indicates an average value with standard error of the five examples. Asterisks (*, **) mean a significant difference (i.e. *: p<0.05; **: p<0.01) between processed samples and unprocessed samples with CML-collagen, determined by Dunnett's Multiple Comparison Test.

NB1 RGB fibroblast = assay: Test 3: collagen grating formation of fibroblast glycosylated by glyoxal; format: cell-based, human
Description: When fibroblast is cultured in the presence of collagen solution, collagen grating formation can be identified. In a similar test, when adding fibroblast that has been glycosylated by the intermediate product of glycation (glyoxal), it is known that the collagen grating formation is inhibited.
The infant-derived NB1 RGB (passage number 22) was suspended in the D-MEM complete media (1.86×10^4 cells/mL). 15 mL each of it was seeded within each cell-culture dish of 14 cm in diameter. After 24 hours, each sample and glyoxal were added until the molecular mass of each dish became […] and incubate the dishes for five days.
Bovine skin-derived collagen (25 mg) was dissolved in 0.1% acetic acid (8.3 mL). Then, a 10-times concentration of Hanks solution ([…]) was added. Then, 0.1% acetic acid (3.5 mL) was added. 1M NaOH was added to neutralize the solution, which was sterilized by filteration to obtain the collagen solution.
The mixed solution of collected fibroblast (5.4×10^4 cell) was suspended in FCS ([…]), and collagen ([…]) was seeded within a 24-well cell-culture plate and allowed to culture for 24 hours and 48 hours. Each culture was observed through a microscope and by the naked eye. For the purpose of comparison, aminoguanidin hydrochloride which is an anti-glycation agent was also examined in the same way.

Row | SMILES | production of AGE within the fibroblast (anti-AGE antibody, FIG. 6) (human diploid fibroblast) | IC50 of AGE production inhibition (AGE production) [µg/mL] | Inhibition Ratio (%) of AGE production (AGE production; 1 μg/mL) [%] | Inhibition Ratio (%) of AGE production (AGE production; 3 μg/mL) | Inhibition Ratio (%) of AGE production (AGE production; 10 μg/mL) | Inhibition Ratio (%) of AGE production (AGE production; 30 μg/mL) | Inhibition Ratio (%) of AGE production (AGE production; 100 μg/mL) | Inhibition Ratio (%) of AGE production (AGE production; 300 μg/mL) | Inhibition Ratio (%) of AGE production (AGE production; 300 μg/mL, listed as Example 3) [%] | Inhibition Ratio (%) of fibroblast apoptosis (Caspase Assay) ([1]; 1 μg/mL) | Inhibition Ratio (%) of fibroblast apoptosis (Caspase Assay) ([1]; 3 μg/mL) [%] | Inhibition Ratio (%) of fibroblast apoptosis (Caspase Assay) ([1]; 10 μg/mL) | AGE inhibitory activity in words, related compound with less hydroxyl compared with Example 3 (AGE production) | fibroblast shape, microscopic image after 24 hours of culture (FIG. 4) (NB1 RGB fibroblast) | amount of collagen grating formation (naked eye, FIG. 3), compared to the control group (NB1 RGB fibroblast; 100 mg/mL, with glyoxal) | Inhibition Ratio (%) of fibroblast apoptosis (Caspase Assay) ([1]; 100 μg/mL)
1 | O=C(/C=C/c1ccc(O)c(O)c1)O[C@@H]1OC(CO)[C@@H](O)C(O)C1O (stereo partly drawn) [1-O-(E)-Caffeoyl-β-D-glucopyranoside] | inhibited the production of AGE | >300 | −3.3 ± 0.1 | 0.9 ± 0.1% | 10.7 ± 0.1** % | 19.5 ± 0.3** % | 25.0 ± 0.3** % | 30.0 ± 0.4** % | 30 | 26.2 ± 0.5* % | 37.6 ± 1.2 | 72.2 ± 2.7* % | – | – | – | –
2 | O=C(/C=C/c1ccccc1)O[C@@H]1OC(CO)[C@@H](O)C(O)C1O (stereo partly drawn) [1-O-(E)-Cinnamoyl-β-D-glucopyranoside] | – | >300 | −8.4 ± 0.1 | −10.4 ± 0.1% | −10.9 ± 0.4* % | −7.8 ± 0.1% | 5.7 ± 0.1% | 23.3 ± 0.4** % | – | −11.8 ± 0.3% | 19.7 ± 0.9 | 48.6 ± 2.9% | reduced | – | – | –
3 | O=C(/C=C/c1ccc(O)cc1)O[C@@H]1OC(CO)[C@@H](O)C(O)C1O (stereo partly drawn) [1-O-(E)-Coumaroyl-β-D-glucopyranoside] | – | >300 | −3.2 ± 0.1 | −8.2 ± 0.1** % | −8.6 ± 0.1** % | −8.9 ± 0.1** % | −3.7 ± 0.1** % | 11.6 ± 0.1** % | – | 17.2 ± 0.5% | 7.1 ± 0.2 | 51.1 ± 1.9% | reduced | – | – | –
4 | Cl.N=C(N)NN [Aminoguanidine Hydrochloride, aminoguanidine hydrochloride, reference compound] | – | 138 | – | – | 1.4 ± 0.1% | 18.1 ± 1.1% | 42.6 ± 1.7** % | 67.7 ± 1.6** % | – | – | – | – | – | spherically shaped | showed no increase in the amount of grating formation | 104.8 ± 34* %
